Patent US20090029856A1, “Hinokitiol As A Plant Pesticide” (priority 2007, published 2009)
Like-named read-outs stand apart in the source and are kept apart here.

Columns and labels:
[1] = Sun exposure experiment in vials, HPLC analysis of hinokitiol; format: physicochemical
Protocol: HPLC analysis: HPLC systems include waters 2695 separation modules with auto sampler, waters 2996 photodiode array detector, Masslynx software and Sunfire™ C18 column (5 μm, 4.6×150 mm). […] Gradient mobile phase was adopted. […] Hinokitiol complex with citric acid was monitored at 320 nm. The column temperature was kept at 30° C. during the experiment. […] The vials were put on a rack. […] After sunlight exposure, rack and vials were immediately stored at 4° C. or subsamples were taken for HPLC analysis. Visual observation was recorded before subsamples were taken. Vials were vortexed very well before subsamples were taken. Triplicates were carried out for each sample. All sun light exposure in the later studies was the same unless stated. Temperature in all this studies varied between 75 to 95° F.

[2] = system: 2-week-old cucumber plants; conditions: in vivo
Protocol: Ethoxylated fatty esters (e.g., polyethylene 20 sorbitan monooleate, polyethylene 20 sorbitan monolaurate), ethoxylated alcohols (e.g., Genapol UD-80, UD 110, O-100 and O-200, Clariant Corporation) were chosen for phytotoxic screening in this study. […] These formulations were diluted 100 times with tap water and then sprayed on 2-week-old cucumber plants. […] Precipitation would happen to Oxylignin (sodium salt) when pH reached to 8.0 and then increased with pH.

Degradation of hinokitiol (%) [1] [%]	degradation of hinokitiol in the formulation compared with other UV protection agents [1]	Degradation of hinokitiol (%) ([1]; pH 7.4)	Degradation of hinokitiol (%) ([1]; pH 8.29)	Degradation of hinokitiol (%) ([1]; pH 9.61)	Substance	phytotoxicity on 2-week-old cucumber plants ([2]; pH 10)	phytotoxicity (shown or not) [2]
40 ± 1	much slower	40 ± 3	30 ± 2	21 ± 4	Humic acid	no obvious phytotoxicity	
					polyethylene 20 sorbitan monooleate		did not show any obvious phytotoxicity
